According to article PMC11555678, “Improved Broad Spectrum Antifungal Drug Synergies with Cryptomycin, a Cdc50-Inspired Antifungal Peptide” (ACS Infectious Diseases, 2024):
Values after ≈ are worked out from the molar mass of the structure shown. Like-named read-outs stand apart in the source and are kept apart here.

How the values were obtained:
C. glabrata 2001 = assay: microbe, parasite or virus in culture; format: cell-based, Candida glabrata; conditions: Nakaseomyces glabratus, 2001; compound alone; RPMI1640, 37 °C, 48 h; read-out: MIC
In short: (§1)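 Broth microdilution per CLSI M27 in RPMI1640, compounds serially diluted 2-fold from DMSO stock. Overnight YPD cultures washed, resuspended and adjusted to 5000 cfu/mL in RPMI as inoculum. Plates incubated 2 days at 37 °C.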

C. glabrata FKS1-S629P = assay: microbe, parasite or virus in culture; format: cell-based, Candida glabrata; conditions: Nakaseomyces glabratus, FKS1S629P, 48 h
In short: as §1

C. glabrata FKS2-S663P = assay: microbe, parasite or virus in culture; format: cell-based, Candida glabrata; conditions: Nakaseomyces glabratus, FKS2S663P, 48 h
In short: as §1

Cg FKS1 S629P = assay: Drug synergy (MIC in peptide-supplemented media); format: cell-based, Candida glabrata; conditions: for MIC of antifungal in combination with KKOO / MIC of antifungal in combination with KKOO-NH2: RPMI1640, 37 °C, 48 h
In short: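 Broth microdilution followed CLSI M27 (yeasts) or M38 (filamentous fungi) in RPMI1640, with 2-fold serial dilution, inoculum 5000 cfu/mL and 2 days at 37 °C. For synergy, medium carried the peptide at fixed final concentration and FIC index was calculated; the higher MIC of duplicates was reported.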

C. albicans SC5413 = format: cell-based, Candida albicans; conditions: RPMI1640, 37 °C, 48 h; for MIC of antifungal in combination with KKOO: azole MICs unclear (intermediate phenotype); for MIC of antifungal in combination with KKOO-NH2: azole MICs could not be determined (intermediate phenotype)
Experimental: All microdilution assays with fungi were carried out in accordance with CLSI protocols from M27 for yeasts and M38 for filamentous fungi, respectively, unless otherwise specified.[64],[65] Briefly, 96-well plates were charged with RPMI1640 media, with operating volume in the first column, 200 μL, and half operating volume, 100 μL, in the remaining wells. Drug stock solution in DMSO was aliquoted into the first well in each row. Half of the volume in the dosed well was serially diluted 2-fold until column 11. Column 11 was used as the negative growth control, and column 12 was used as the positive growth control. ON yeast cultures in YPD were washed twice in DD-H2O, resuspended in PBS, and adjusted to 5000 cfu/mL in RPMI. The 96-well plate was inoculated with 100 μL aliquots of cell suspension per well. Plates were incubated at 37 °C for 2 days.
To assess drug synergy, the initial media charged to the plate contained the peptide at twice the final operating concentration; the remaining processing steps were identical to the MIC experiment. Upon addition of 100 μL of inoculant, the final operating concentration was achieved. Control MIC plates were prepared alongside drug synergy plates to account for the day-to-day variability in any individual MIC. FIC index is computed using eq 1. All MIC assays and drug synergy assays were completed with two technical replicates per 96-well plate and a minimum of two biological replicates per drug combination. If a difference in MIC between the two technical replicates on the plate were observed, only the higher concentration was reported as the MIC to reduce the possibility of type 1 error (false positive) [drawing 1] 1

Cn H99 = assay: microbe, parasite or virus in culture; format: cell-based, Cryptococcus neoformans; conditions: Cryptococcus neoformans, H99, 48 h, 37 °C, 48 h, read-out: MIC
In short: (§2)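 MICs were determined by CLSI M27 broth microdilution in RPMI1640, using 2-fold serial dilutions and a 5000 cfu/mL yeast inoculum, with incubation for 2 days at 37 °C. Separate MIC tests were run in YPD enriched with CaCl2 or MgCl2.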

Cn cdc50Δ = assay: microbe, parasite or virus in culture; format: cell-based, Cryptococcus neoformans; conditions: 48 h, 37 °C, 48 h
In short: as §2

Cn Crm1-oe = assay: microbe, parasite or virus in culture; format: cell-based, Cryptococcus neoformans; conditions: Cryptococcus neoformans, CRM1OE, 48 h, 37 °C
Cn apt1Δ = assay: microbe, parasite or virus in culture; format: cell-based, Cryptococcus neoformans; conditions: Cryptococcus neoformans, 48 h, 37 °C, 48 h
Cn crm1Δ = assay: microbe, parasite or virus in culture; format: cell-based, Cryptococcus neoformans; conditions: Cryptococcus neoformans, 48 h, 37 °C

For `CC[C@H](C)C[C@H](C)CCCCCCCCC(=O)N[C@H]1C[C@@H](O)[C@@H](NCCN)NC(=O)[C@@H]2[C@@H](O)CCN2C(=O)[C@H]([C@H](O)CCN)NC(=O)[C@H]([C@H](O)[C@@H](O)c2ccc(O)cc2)NC(=O)[C@@H]2C[C@@H](O)CN2C(=O)[C@H]([C@@H](C)O)NC1=O` [CAS, caspofungin], which MIC (C. glabrata 2001) is on record?
Its MIC is 0.5 µg/mL (≈ 0.457 µM).

And the MIC (C. glabrata FKS1-S629P)?
The MIC was 2 µg/mL (≈ 1.83 µM).

What about the MIC (C. glabrata FKS2-S663P) of the same molecule?
Its MIC is 4 µg/mL (≈ 3.66 µM).

What about the “MIC of antifungal in combination with KKOO” value (Cg FKS1 S629P; +0 μg/mL KKOO (control)) of the same molecule?
The value was 1 µg/mL.

And the “MIC of antifungal in combination with KKOO-NH2” value (shortened to “MIC … with KKOO-NH2”) (Cg FKS1 S629P; +0 μg/mL KKOO-NH2 (control))?
The value was 1 µg/mL.

And the “MIC … with KKOO-NH2” value (Cg FKS1 S629P; +1 μg/mL KKOO-NH2)?
The value was 0.5 µg/mL.

And the “MIC of antifungal in combination with KKOO” value (Cg FKS1 S629P; +1 μg/mL KKOO)?
The value was 0.5 µg/mL.

And the “MIC … with KKOO-NH2” value (Cg FKS1 S629P; +2 μg/mL KKOO-NH2)?
The value was 0.062 µg/mL.

What about the “MIC of antifungal in combination with KKOO” value (Cg FKS1 S629P; +2 μg/mL KKOO) of the same molecule?
The value was 0.125 µg/mL.

And the “MIC … with KKOO-NH2” value (Cg FKS1 S629P; +4 μg/mL KKOO-NH2)?
The value was 0.004 µg/mL.

And the “MIC of antifungal in combination with KKOO” value (Cg FKS1 S629P; +4 μg/mL KKOO)?
Its value is 0.008 µg/mL.

What about the “reduction of MIC of antifungal” value (Cg FKS1 S629P; in the presence of 2 μg/mL KKOO-NH2) of the same molecule?
The value was 16 fold.

And the “MIC of antifungal in combination with KKOO” value (C. albicans SC5413; +0 μg/mL KKOO (control))?
Its value is 0.25 µg/mL.

What about the “MIC … with KKOO-NH2” value (C. albicans SC5413; +0 μg/mL KKOO-NH2 (control)) of the same molecule?
Its value is 0.25 µg/mL.

And the “MIC … with KKOO-NH2” value (C. albicans SC5413; +1 μg/mL KKOO-NH2)?
The value was 0.5 µg/mL.

What about the “MIC of antifungal in combination with KKOO” value (C. albicans SC5413; +1 μg/mL KKOO) of the same molecule?
The value was 0.5 µg/mL.

What about the “MIC … with KKOO-NH2” value (C. albicans SC5413; +2 μg/mL KKOO-NH2) of the same molecule?
Its value is 0.062 µg/mL.

And the “MIC of antifungal in combination with KKOO” value (C. albicans SC5413; +2 μg/mL KKOO)?
Its value is 0.125 µg/mL.

What about the “MIC … with KKOO-NH2” value (C. albicans SC5413; +4 μg/mL KKOO-NH2) of the same molecule?
The value was 0.008 µg/mL.

And the “MIC of antifungal in combination with KKOO” value (C. albicans SC5413; +4 μg/mL KKOO)?
The value was 0.556 µg/mL.

What about the “MIC of antifungal in combination with KKOO” value (C. albicans SC5413; +8 μg/mL KKOO) of the same molecule?
The value was 0.008 µg/mL.

What about the MIC (Cn H99; YPD + 0 mM Ca2+) of the same molecule?
The MIC was 8 µg/mL.

What about the MIC (Cn H99; YPD + 0 mM Mg2+) of the same molecule?
The MIC was 8 µg/mL.

And the MIC (Cn H99; YPD + 2.5 mM Ca2+)?
Its MIC is 16 µg/mL.

And the MIC (Cn H99; YPD + 2.5 mM Mg2+)?
Its MIC is 16 µg/mL.

And the MIC (Cn H99; YPD + 5 mM Ca2+)?
The MIC was 32 µg/mL.

And the MIC (Cn H99; YPD + 5 mM Mg2+)?
Its MIC is 16 µg/mL.

What about the MIC (Cn H99; YPD + 10 mM Ca2+) of the same molecule?
Its MIC is 64 µg/mL.

And the MIC (Cn H99; YPD + 10 mM Mg2+)?
Its MIC is 32 µg/mL.

And the MIC (Cn H99; YPD + 20 mM Mg2+)?
The MIC was 64 µg/mL.

And the MIC (Cn cdc50Δ; Cryptococcus neoformans, YPD + 0 mM Ca2+)?
The MIC was 4 µg/mL.

And the MIC (Cn cdc50Δ; Cryptococcus neoformans, YPD + 2.5 mM Ca2+)?
The MIC was 8 µg/mL.

What about the MIC (Cn cdc50Δ; Cryptococcus neoformans, YPD + 5 mM Ca2+) of the same molecule?
The MIC was 16 µg/mL.

What about the MIC (Cn cdc50Δ; Cryptococcus neoformans, YPD + 10 mM Ca2+) of the same molecule?
The MIC was 32 µg/mL.

And the MIC (Cn cdc50Δ; Cryptococcus neoformans, YPD + 20 mM Ca2+)?
The MIC was 8 µg/mL.

What about the MIC (Cn cdc50Δ; YPD + 0 mM Mg2+, unit inferred) of the same molecule?
The MIC was 4 µg/mL.

What about the MIC (Cn cdc50Δ; YPD + 2.5 mM Mg2+, unit inferred) of the same molecule?
Its MIC is 8 µg/mL.

And the MIC (Cn cdc50Δ; YPD + 5 mM Mg2+, unit inferred)?
The MIC was 8 µg/mL.

What about the MIC (Cn cdc50Δ; YPD + 10 mM Mg2+, unit inferred) of the same molecule?
The MIC was 8 µg/mL.

What about the MIC (Cn cdc50Δ; YPD + 20 mM Mg2+, unit inferred) of the same molecule?
The MIC was 8 µg/mL.

And the MIC (Cn Crm1-oe; YPD + 0 mM Ca2+)?
The MIC was 8 µg/mL.

And the MIC (Cn Crm1-oe; YPD + 2.5 mM Ca2+)?
The MIC was 32 µg/mL.

What about the MIC (Cn Crm1-oe; YPD + 5 mM Ca2+) of the same molecule?
Its MIC is 32 µg/mL.

And the MIC (Cn Crm1-oe; YPD + 10 mM Ca2+)?
The MIC was 128 µg/mL.

And the MIC (Cn Crm1-oe; YPD + 20 mM Ca2+)?
Its MIC is 128 µg/mL.

What about the MIC (Cn apt1Δ; YPD + 0 mM Ca2+) of the same molecule?
Its MIC is 8 µg/mL.

What about the MIC (Cn apt1Δ; YPD + 2.5 mM Ca2+) of the same molecule?
The MIC was 16 µg/mL.

What about the MIC (Cn apt1Δ; YPD + 5 mM Ca2+) of the same molecule?
The MIC was 32 µg/mL.

What about the MIC (Cn apt1Δ; YPD + 10 mM Ca2+) of the same molecule?
The MIC was 32 µg/mL.

And the MIC (Cn apt1Δ; YPD + 20 mM Ca2+)?
Its MIC is 64 µg/mL.

What about the MIC (Cn crm1Δ; YPD + 0 mM Ca2+) of the same molecule?
The MIC was 8 µg/mL.

What about the MIC (Cn crm1Δ; YPD + 2.5 mM Ca2+) of the same molecule?
The MIC was 32 µg/mL.

And the MIC (Cn crm1Δ; YPD + 5 mM Ca2+)?
Its MIC is 32 µg/mL.

What about the MIC (Cn crm1Δ; YPD + 10 mM Ca2+) of the same molecule?
The MIC was 64 µg/mL.

And the MIC (Cn crm1Δ; YPD + 20 mM Ca2+)?
Its MIC is over 128 µg/mL.
